Experimental data as given in paper PMC3427755 (Organic & biomolecular chemistry, 2012).
Entries after “also recorded” stand apart in the source; their conditions may differ. Like-named read-outs stand apart in the source and are kept apart here.

What was measured:
[1] = tested on: SW620 (B-Raf^WT) human colonic carcinoma cells; assay: Anti-proliferation activity, SW620 cells; assay type: cell-based; conditions: SW-620, read-out: Tumor growth inhibition rate SW620 (B-Raf)
[2] = target: B-Raf^V600E (Homo sapiens, UniProt P15056, V600E); assay: In vitro B-Raf kinase assay; assay type: biochemical; conditions: for Inhibition rate B-Raf^V600E: [I]=1μM
Sequence of B-Raf^V600E (P15056 433-726 V600E): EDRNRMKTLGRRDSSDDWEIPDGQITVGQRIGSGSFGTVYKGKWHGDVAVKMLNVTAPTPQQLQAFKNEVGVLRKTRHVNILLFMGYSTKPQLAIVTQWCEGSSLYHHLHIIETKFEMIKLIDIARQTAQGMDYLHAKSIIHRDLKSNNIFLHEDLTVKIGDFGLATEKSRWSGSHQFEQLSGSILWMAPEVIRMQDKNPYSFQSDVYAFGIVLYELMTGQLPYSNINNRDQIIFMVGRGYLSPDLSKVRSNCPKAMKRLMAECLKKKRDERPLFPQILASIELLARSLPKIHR

[3] = target: B-Raf^WT (Homo sapiens, UniProt P15056); assay: In vitro B-Raf kinase assay; assay type: biochemical; conditions: for inhibition at 2 µM: read-out: Inhibition rate (%) B-Raf; for Inhibition rate B-Raf: [I]=1μM; for Inhibition rate (%) B-Raf: 2μM of compound
Sequence of B-Raf^WT (P15056 433-726): as the sequence (P15056 433-726 V600E) above, with E168V counted along it

[4] = tested on: A375 (B-Raf^V600E) malignant melanoma cells; assay: Anti-proliferation activity, A375 melanoma cells; assay type: cell-based, human; conditions: for inhibition at 10 µM: Homo sapiens, A-375, read-out: Tumor growth inhibition rate A375(B-Raf^V600E); for Tumor growth inhibition rate A375(B-Raf^V600E): [I]=10μM
[5] = read-out: Inhibition rate (%) B-Raf^V600E
[6] = read-out: Inhibition rate (%) B-Raf^V600E, 0.5μM of compound
[7] = read-out: Inhibition rate (%) B-Raf^V600E, 2μM of compound

## CC(C)(C)c1ccc(-c2ccc(C=C3C(=O)NC(=S)NC3=O)o2)cc1 [Compound 22i, 5-[5-(4-tert-butyl-phenyl)-furan-2ylmethylene]-2-thioxo-dihydro-pyrimidine-4,6-dione]
[1]
  inhibition at 10 µM: 7.6%
[2]; [5]
  inhibition at 0.5 µM: 36%
  inhibition at 2 µM: 57%
[3]
  inhibition at 2 µM: 29%
[4]
  inhibition at 10 µM: 95.4%
[4]; 10 µM
  Tumor growth inhibition rate A375(B-Raf^V600E): potent growth inhibition activity; also recorded: virtually complete growth inhibition

## O=C1NC(=S)NC(=O)C1=Cc1ccc(-c2ccc(Cl)cc2C(F)(F)F)o1 [Compound 22o, 5-[5-(2-trifluomethyl-4-chloro)-furan-2ylmethylene]-2-thioxo-dihydro-pyrimidine-4,6-dione]
[2]
  Inhibition rate B-Raf^V600E: 49%
[3]
  Inhibition rate B-Raf: 24%

## O=C1C(=Cc2ccc(-c3ccc(Cl)cc3)o2)Cc2ccccc21 [Compound 16e, 2-[5-(4-chloro-phenyl)-furan-2-ylmethylene]-indan-1-one]
[2]; [6]
  inhibition at 0.5 µM: 41%
[2]; [7]
  inhibition at 2 µM: > 50%
[4]
  inhibition at 10 µM: 5.2%

## O=C1C(=Cc2ccc(-c3cccc(C(F)(F)F)c3)o2)Cc2ccccc21 [Compound 16b, 2-[5-(3-trifluomethyl-phenyl)-furan-2-ylmethylene]-indan-1-one]
[2]; 2μM of compound
  Inhibition rate (%) B-Raf^V600E: 22% n.d.

## COc1ccc(-c2ccc(C=C3SC(=O)NC3=O)o2)cc1 [Compound 19h, 5-[5-(4-methoxy-phenyl)-furan-2ylmethylene]-thiazolidine-2,4-dione]
[2]; [7]
  inhibition at 2 µM: 41%
[3]
  inhibition at 2 µM: 3%

## O=C1Nc2cc(Cl)ccc2C1=Cc1ccc(-c2cc(C(F)(F)F)ccc2Cl)o1 [Compound 17f, 3-[5-(2-chloro-5-trifluomethyl)-furan-2-ylmethylene]-6-chloro-1,3-dihydro-indol-2-one]
[2]; 2μM of compound
  Inhibition rate (%) B-Raf^V600E: 34% n.d.

## O=C1NC(=S)NC(=O)C1=Cc1ccc(-c2ccc(Cl)cc2)o1 [Compound 22e, 5-[5-(4-chloro-phenyl)-furan-2ylmethylene]-2-thioxo-dihydro-pyrimidine-4,6-dione]
[1]
  inhibition at 10 µM: 9%
[2]; [5]
  inhibition at 0.5 µM: 33%
  inhibition at 2 µM: 69%
[3]
  inhibition at 2 µM: 15%
[4]
  inhibition at 10 µM: 82.9%
  Tumor growth inhibition rate A375(B-Raf^V600E): potent growth inhibition activity

## COc1cccc(-c2ccc(C=C3C(=O)NC(=S)NC3=O)o2)c1 [Compound 22b, 5-[5-(3-methoxy-phenyl)-furan-2ylmethylene]-2-thioxo-dihydro-pyrimidine-4,6-dione]
[2]; [5]
  inhibition at 0.5 µM: 34%
  inhibition at 2 µM: 63%
[3]
  inhibition at 2 µM: 6%
[4]
  inhibition at 10 µM: 26.2%

## Cc1ccc(-c2ccc(C=C3C(=O)NC(=S)NC3=O)o2)cc1 [Compound 22g, 5-[5-(4-methyl-phenyl)-furan-2ylmethylene]-2-thioxo-dihydro-pyrimidine-4,6-dione]
[1]
  inhibition at 10 µM: 3.6%
[2]; [5]
  inhibition at 0.5 µM: 50%
  inhibition at 2 µM: 59%
[3]
  inhibition at 2 µM: 17%
[4]
  inhibition at 10 µM: 84%
[4]; 10 µM
  Tumor growth inhibition rate A375(B-Raf^V600E): potent growth inhibition activity; also recorded: virtually complete growth inhibition

## O=C1Nc2ccccc2C1=Cc1ccc(-c2cc(C(F)(F)F)ccc2Cl)o1 [Compound 17d, 3-[5-(2-chloro-5-trifluomethyl)-furan-2-ylmethylene]-1,3-dihydro-indol-2-one]
[2]; 2μM of compound
  Inhibition rate (%) B-Raf^V600E: 23% n.d.

## O=C1NC(=S)NC(=O)C1=Cc1ccc(-c2ccc3ccccc3c2)o1 [Compound 22j, 5-[5-(2-naphthyl)-furan-2ylmethylene]-2-thioxo-dihydro-pyrimidine-4,6-dione]
[2]
  IC50: 1.07 µM
[3]
  IC50: 1.93 µM
[4]
  inhibition at 10 µM: 6.9%

## COc1cccc(-c2ccc(C=C3SC(=O)NC3=O)o2)c1 [Compound 19b, 5-[5-(3-methoxy-phenyl)-furan-2ylmethylene]-thiazolidine-2,4-dione]
[2]; [7]
  inhibition at 2 µM: 34%

## O=C1C(=Cc2ccc(-c3ccc(Br)cc3)o2)Cc2ccccc21 [Compound 16f, 2-[5-(4-bromo-phenyl)-furan-2-ylmethylene]-indan-1-one]
[2]; [7]
  inhibition at 2 µM: 42%

## O=C1NC(=O)C(=Cc2ccc(-c3ccc([N+](=O)[O-])cc3)o2)S1 [Compound 19c, 5-[5-(4-nitro-phenyl)-furan-2ylmethylene]-thiazolidine-2,4-dione]
[2]; [7]
  inhibition at 2 µM: 48%

## O=C1Nc2ccccc2C1=Cc1ccc(-c2cccc(C(F)(F)F)c2)o1 [Compound 17a, 3-[5-(3-trifluomethyl-phenyl)-furan-2-ylmethylene]-1,3-dihydro-indol-2-one]
[2]; 2μM of compound
  Inhibition rate (%) B-Raf^V600E: 34% n.d.

## O=C1C(=Cc2ccc(-c3cccc(C(F)(F)F)c3)o2)Cc2cc(Cl)ccc21 [Compound 16c, 2-[5-(3-trifluomethyl-phenyl)-furan-2-ylmethylene]-5-chloro-indan-1-one]
[2]; 0.5μM of compound
  Inhibition rate (%) B-Raf^V600E: 42%
[4]
  Tumor growth inhibition rate A375(B-Raf^V600E): 3.2

## O=C1C(=Cc2ccc(-c3ccc([N+](=O)[O-])cc3)o2)Cc2ccccc21 [Compound 16d, 2-[5-(4-nitro-phenyl)-furan-2-ylmethylene]-indan-1-one]
[2]; [7]
  inhibition at 2 µM: 34%

## Cc1ccc(-c2ccc(C=C3SC(=O)NC3=O)o2)cc1 [Compound 19g, 5-[5-(4-methyl-phenyl)-furan-2ylmethylene]-thiazolidine-2,4-dione]
[2]; [7]
  inhibition at 2 µM: 41%

## O=C1Nc2ccc(Cl)cc2C1=Cc1ccc(-c2cccc(C(F)(F)F)c2)o1 [Compound 17c, 3-[5-(3-trifluomethyl-phenyl)-furan-2-ylmethylene]-5-chloro-1,3-dihydro-indol-2-one]
[2]; 2μM of compound
  Inhibition rate (%) B-Raf^V600E: 23% n.d.
[3]
  Inhibition rate (%) B-Raf: 17% n.d.

## O=C1NC(=S)NC(=O)C1=Cc1ccc(-c2cccc(C(F)(F)F)c2)o1 [Compound 22l, 5-[5-(3-trifluomethyl-phenyl)-furan-2ylmethylene]-2-thioxo-dihydro-pyrimidine-4,6-dione]
[2]
  Inhibition rate B-Raf^V600E: 45%
[3]
  Inhibition rate B-Raf: 30%

## O=C1Nc2ccc(Cl)cc2C1=Cc1ccc(-c2cc(C(F)(F)F)ccc2Cl)o1 [Compound 17e, 3-[5-(2-chloro-5-trifluomethyl)-furan-2-ylmethylene]-5-chloro-1,3-dihydro-indol-2-one]
[2]; 2μM of compound
  Inhibition rate (%) B-Raf^V600E: 34% n.d.

## CC(C)(C)c1ccc(-c2ccc(C=C3SC(=O)NC3=O)o2)cc1 [Compound 19i, 5-[5-(4-tert-butyl-phenyl)-furan-2ylmethylene]-thiazolidine-2,4-dione]
[2]; [7]
  inhibition at 2 µM: 34%
[3]
  inhibition at 2 µM: 17%

## O=C1NC(=S)NC(=O)C1=Cc1ccc(-c2ccc([N+](=O)[O-])cc2)o1 [Compound 22c, 5-[5-(4-nitro-phenyl)-furan-2ylmethylene]-2-thioxo-dihydro-pyrimidine-4,6-dione]
[2]; [5]
  inhibition at 2 µM: 59%
[3]
  inhibition at 2 µM: 55%
[4]
  inhibition at 10 µM: 46.3%

## O=C1NC(=S)NC(=O)C1=Cc1ccc(-c2ccc(Cl)c(C(F)(F)F)c2)o1 [Compound 22p, 5-[5-(3-trifluomethyl-4-chloro)-furan-2ylmethylene]-2-thioxo-dihydro-pyrimidine-4,6-dione]
[2]
  Inhibition rate B-Raf^V600E: 48%
[3]
  Inhibition rate B-Raf: 37%

## O=C1NC(=O)C(=Cc2ccc(-c3cc(C(F)(F)F)ccc3Cl)o2)S1 [Compound 19k, 5-[5-(2-chloro-5-trifluomethyl)-furan-2ylmethylene]-thiazolidine-2,4-dione]
[2]; 2μM of compound
  Inhibition rate (%) B-Raf^V600E: 37% n.d.
[3]
  Inhibition rate (%) B-Raf: 18% n.d.

## O=C1NC(=O)C(=Cc2ccc(-c3ccc4ccccc4c3)o2)S1 [Compound 19j, 5-[5-(2-naphthyl)-furan-2ylmethylene]-thiazolidine-2,4-dione]
[2]; [7]
  inhibition at 2 µM: 51%

## O=C1C(=Cc2ccc(-c3cc(C(F)(F)F)ccc3Cl)o2)Cc2ccccc21 [Compound 16g, 2-[5-(2-chloro-5-trifluomethyl)-furan-2-ylmethylene]-indan-1-one]
[2]; 2μM of compound
  Inhibition rate (%) B-Raf^V600E: 44% n.d.

## O=C1NC(=O)C(=Cc2ccc(-c3ccccc3[N+](=O)[O-])o2)S1 [Compound 19a, 5-[5-(2-nitro-phenyl)-furan-2ylmethylene]-thiazolidine-2,4-dione]
[2]; [7]
  inhibition at 2 µM: 7%

## O=C1C(=Cc2ccc(-c3ccccc3[N+](=O)[O-])o2)Cc2ccccc21 [Compound 16a, 2-[5-(2-nitro-phenyl)-furan-2-ylmethylene]-indan-1-one]
[2]; [6]
  inhibition at 0.5 µM: 47%
[2]; [7]
  inhibition at 2 µM: > 50%
[3]
  inhibition at 2 µM: 11%
[4]
  inhibition at 10 µM: 16.5%

## O=C1NC(=S)NC(=O)C1=Cc1ccc(-c2ccccc2[N+](=O)[O-])o1 [Compound 22a, 5-[5-(2-nitro-phenyl)-furan-2ylmethylene]-2-thioxo-dihydro-pyrimidine-4,6-dione]
[2]; [5]
  inhibition at 0.5 µM: 48%
  inhibition at 2 µM: 61%
[3]
  inhibition at 2 µM: 38%

## O=C1NC(=S)NC(=O)C1=Cc1ccc(-c2cc(C(F)(F)F)ccc2Cl)o1 [Compound 22k, 5-[5-(2-chloro-5-trifluomethyl)-furan-2ylmethylene]-2-thioxo-dihydro-pyrimidine-4,6-dione]
[4]
  Tumor growth inhibition rate A375(B-Raf^V600E): 18.3

## O=C1Nc2cc(Cl)ccc2C1=Cc1ccc(-c2cccc(C(F)(F)F)c2)o1 [Compound 17b, 3-[5-(3-trifluomethyl-phenyl)-furan-2-ylmethylene]-6-chloro-1,3-dihydro-indol-2-one]
[2]; 2μM of compound
  Inhibition rate (%) B-Raf^V600E: 38% n.d.

## O=C1NC(=S)NC(=O)C1=Cc1ccc(-c2ccc(Cl)cc2[N+](=O)[O-])o1 [Compound 22n, 5-[5-(2-nitro-4-chloro)-furan-2ylmethylene]-2-thioxo-dihydro-pyrimidine-4,6-dione]
[2]
  Inhibition rate B-Raf^V600E: 22%
[3]
  Inhibition rate B-Raf: 20%
